The text below walks through data of patent US12398178B2, “Collections of peptides, peptide agents, and methods of use thereof” (Parabilis Medicines, Inc., priority 2018, dated 2025).

Starred links: 1 amine or outer side, 2 acyl side, 3 side chain; linkers in the order of their positions; H or OH if unused. Positions of bridges follow the written chain, without caps; N, C: chain ends. Residues, ends and D or L forms follow the SMILES beside them. Phenylene(1,4-NHCOCH2)2 = O=C(C[*:1])Nc1ccc(NC(=O)C[*:2])cc1; X5 = CN(C(=O)C[*:1])c1ccc(N(C)C(=O)C[*:2])cc1; X7 = O=C(C[*:1])Nc1cc(F)c(NC(=O)C[*:2])cc1F

What is called chromatographic logD is lipophilicity estimated from chromatographic retention.

The nature of the data set: Measurement of LogD (CHI logD by HPLC). In kind it is physicochemical. The settings on record: CHI log D, 50 mM ammonium acetate pH 7.4 / acetonitrile gradient, C-18 column, 25° C. On the procedure:
Measurement of LogD: LogD values were measured on a Agilent 1260 HPLC with UV detector (254, 220 nm), using a Gemini NX C-18 50×3 mm column (Phenomenex) with a 6-minute 0-100% mobile phase gradient of A) 50 mM ammonium acetate pH 7.4 and B) Acetonitrile at 25° C. with a flow rate of 1 mL/min and injection volume of 3-5 uL.
Regarding `CC(C)C[C@@H]1NC(=O)[C@H](C)NC(=O)[C@H](C)NC(=O)[C@H](Cc2c[nH]c3ccccc23)NC(=O)[C@H](CCC(=O)O)NC(=O)[C@@H](NC(=O)[C@H](CCCNC(=N)N)NC(=O)[C@H](Cc2c[nH]cn2)NC(=O)[C@@H](NC(=O)[C@H](C)NC(=O)[C@@H]2CCCN2C(=O)[C@H](CC(=O)O)NC(=O)[C@H](C)N)[C@@H](C)O)CSCC(=O)Nc2ccc(cc2)NC(=O)CSC[C@@H](C(=O)N[C@@H](CCC(=O)O)C(=O)N[C@@H](CC(C)C)C(=O)N[C@H](C(N)=O)C(C)C)NC(=O)[C@H](Cc2c[nH]cn2)NC1=O` [Compound 1], the chromatographic logD is 0.57.

Take `CC[C@H](C)[C@@H]1NC(=O)[C@H](CC(C)C)NC(=O)[C@H](C)NC(=O)[C@H](C)NC(=O)[C@H](Cc2c[nH]cn2)NC(=O)[C@H](CCC(=O)O)NC(=O)[C@@H](NC(=O)[C@H](C)NC(=O)[C@H](Cc2c[nH]c3ccccc23)NC(=O)[C@H](CC(C)C)NC(=O)[C@H](C)NC(=O)[C@@H]2CCCN2C(=O)[C@H](CC(=O)O)NC(=O)[C@H](C)N)CSCC(=O)Nc2ccc(cc2)NC(=O)CSC[C@@H](C(=O)N[C@@H](CCC(=O)O)C(=O)N[C@H](C(=O)N[C@@H](CCC(N)=O)C(N)=O)[C@@H](C)O)NC1=O` [Compound 2] (H-ADPALWACEHAALICETQ-NH2; linker 8-15 via Phenylene(1,4-NHCOCH2)2; N-terminus and C-terminus assumed): the chromatographic logD came to 0.62. Next, `CC[C@H](C)[C@@H]1NC(=O)[C@@H](NC(=O)[C@H](CCC(=O)O)NC(=O)[C@H](CC(=O)O)NC(=O)[C@H](CCC(=O)O)NC(=O)[C@H](C)NC(=O)[C@@H]2CCCN2C(=O)[C@H](CC(=O)O)NC(=O)[C@H](C)N)CSCC(=O)Nc2ccc(cc2)NC(=O)CSC[C@@H](C(=O)N[C@@H](CCCNC(=N)N)C(=O)N[C@@H](Cc2c[nH]c3ccccc23)C(=O)N[C@@H](Cc2c[nH]c3ccccc23)C(N)=O)NC(=O)[C@H](CCSC)NC(=O)[C@H](Cc2c[nH]cn2)NC(=O)[C@H](C)NC(=O)[C@H](C)NC(=O)[C@H](CC(C)C)NC1=O` [Compound 8] (H-ADPAEDECILAAHMCRWW-NH2; linker 8-15 via Phenylene(1,4-NHCOCH2)2; N-terminus and C-terminus assumed): 0.92. The value for `CC[C@H](C)[C@@H]1NC(=O)[C@@H](NC(=O)[C@H](CC(=O)O)NC(=O)[C@H](CCC(=O)O)NC(=O)[C@H](CC(=O)O)NC(=O)[C@H](C)NC(=O)[C@@H]2CCCN2C(=O)[C@H](CC(=O)O)NC(=O)[C@H](C)N)CSCC(=O)Nc2ccc(cc2)NC(=O)CSC[C@@H](C(=O)N[C@@H](CCC(N)=O)C(=O)N[C@@H](Cc2c[nH]c3ccccc23)C(=O)N[C@@H](CC(=O)O)C(N)=O)NC(=O)[C@H]([C@@H](C)CC)NC(=O)[C@H](Cc2c[nH]cn2)NC(=O)[C@H](C)NC(=O)[C@H](C)NC(=O)[C@H](CC(C)C)NC1=O` [Compound 9] (H-ADPADEDCILAAHICQWD-NH2; linker 8-15 via Phenylene(1,4-NHCOCH2)2; N-terminus and C-terminus assumed) was 0.29. Turning to `CC[C@H](C)[C@@H]1NC(=O)[C@H](CC(C)C)NC(=O)[C@H](C)NC(=O)[C@H](C)NC(=O)[C@H](Cc2c[nH]cn2)NC(=O)[C@H](CCC(=O)O)NC(=O)[C@@H](NC(=O)[C@H](Cc2c[nH]cn2)NC(=O)[C@H](Cc2c[nH]c3ccccc23)NC(=O)[C@H](CCC(N)=O)NC(=O)[C@H](C)NC(=O)[C@@H]2CCCN2C(=O)[C@H](CC(=O)O)NC(=O)[C@H](C)N)CSCC(=O)Nc2ccc(cc2)NC(=O)CSC[C@@H](C(=O)N[C@@H](CCC(=O)O)C(=O)N[C@@H](CC(C)C)C(=O)N[C@@H](CC(=O)O)C(N)=O)NC1=O` [Compound 10] (H-ADPAQWHCEHAALICELD-NH2; linker 8-15 via Phenylene(1,4-NHCOCH2)2; N-terminus and C-terminus assumed), the chromatographic logD is 0.39. In turn, `CC(C)C[C@@H]1NC(=O)[C@H](C)NC(=O)[C@H](C)NC(=O)[C@H](Cc2c[nH]cn2)NC(=O)[C@H](CCC(=O)O)NC(=O)[C@@H](NC(=O)[C@H](CCC(N)=O)NC(=O)[C@H](Cc2c[nH]c3ccccc23)NC(=O)[C@@H]2CCCN2C(=O)[C@H](C)NC(=O)[C@@H]2CCCN2C(=O)[C@H](CC(=O)O)NC(=O)[C@H](C)N)CSCC(=O)Nc2ccc(cc2)NC(=O)CSC[C@@H](C(=O)N[C@@H](CCC(=O)O)C(=O)N[C@@H](CC(C)C)C(=O)N[C@@H](CCC(=O)O)C(N)=O)NC(=O)[C@H](CC(C)C)NC1=O` [Compound 11] (H-ADPAPWQCEHAALLCELE-NH2; linker 8-15 via Phenylene(1,4-NHCOCH2)2; N-terminus and C-terminus assumed) showed a chromatographic logD of 0.47. Next, `CC[C@H](C)[C@@H]1NC(=O)[C@H](CC(C)C)NC(=O)[C@H](C)NC(=O)[C@H](C)NC(=O)[C@H](Cc2c[nH]cn2)NC(=O)[C@H](CCC(=O)O)NC(=O)[C@@H](NC(=O)[C@H](CCC(=O)O)NC(=O)[C@H](Cc2c[nH]c3ccccc23)NC(=O)[C@H](CC(=O)O)NC(=O)[C@H](C)NC(=O)[C@@H]2CCCN2C(=O)[C@H](CC(=O)O)NC(=O)[C@H](C)N)CSCC(=O)Nc2ccc(cc2)NC(=O)CSC[C@@H](C(=O)N[C@@H](CC(=O)O)C(=O)N[C@@H](C)C(=O)N[C@@H](CCSC)C(N)=O)NC1=O` [Compound 12] (H-ADPADWECEHAALICDAM-NH2; linker 8-15 via Phenylene(1,4-NHCOCH2)2; N-terminus and C-terminus assumed): 0.39; `CC[C@H](C)[C@@H]1NC(=O)[C@H](CC(C)C)NC(=O)[C@H](C)NC(=O)[C@H](C)NC(=O)[C@H](Cc2c[nH]cn2)NC(=O)[C@H](CCC(=O)O)NC(=O)[C@@H](NC(=O)[C@H](CC(C)C)NC(=O)[C@H](Cc2c[nH]c3ccccc23)NC(=O)[C@H](Cc2ccc(O)cc2)NC(=O)[C@H](C)NC(=O)[C@@H]2CCCN2C(=O)[C@H](CC(=O)O)NC(=O)[C@H](C)N)CSCC(=O)Nc2ccc(cc2)NC(=O)CSC[C@@H](C(=O)N[C@@H](CCC(=O)O)C(=O)N[C@H](C(=O)N[C@@H](CCC(=O)O)C(N)=O)C(C)C)NC1=O` [Compound 13] (H-ADPAYWLCEHAALICEVE-NH2; linker 8-15 via Phenylene(1,4-NHCOCH2)2; N-terminus and C-terminus assumed): 0.8; `CC[C@H](C)[C@H](NC(=O)[C@H](CCC(=O)O)NC(=O)[C@@H]1CSCC(=O)Nc2ccc(cc2)NC(=O)CSC[C@H](NC(=O)[C@@H]2CCCN2C(=O)[C@H](Cc2c[nH]c3ccccc23)NC(=O)[C@H](CCC(N)=O)NC(=O)[C@H](C)NC(=O)[C@@H]2CCCN2C(=O)[C@H](CC(=O)O)NC(=O)[C@H](C)N)C(=O)N[C@@H](CCC(=O)O)C(=O)N[C@@H](Cc2c[nH]cn2)C(=O)N[C@@H](C)C(=O)N[C@@H](C)C(=O)N[C@@H](CC(C)C)C(=O)N[C@@H](CC(C)C)C(=O)N1)C(=O)N[C@@H](CCC(=O)O)C(N)=O` [Compound 14] (H-ADPAQWPCEHAALLCEIE-NH2; linker 8-15 via Phenylene(1,4-NHCOCH2)2; N-terminus and C-terminus assumed): 0.47. The value for `CC(C)C[C@@H]1NC(=O)[C@H](C)NC(=O)[C@H](C)NC(=O)[C@H](Cc2c[nH]c3ccccc23)NC(=O)[C@H](CCC(=O)O)NC(=O)[C@@H](NC(=O)[C@H](CCCNC(=N)N)NC(=O)[C@H](Cc2c[nH]cn2)NC(=O)[C@@H](NC(=O)[C@H](C)NC(=O)[C@@H]2CCCN2C(=O)[C@H](CC(=O)O)NC(=O)[C@H](C)N)[C@@H](C)O)CSCC(=O)Nc2cc(Cl)c(cc2Cl)NC(=O)CSC[C@@H](C(=O)N[C@@H](CCC(=O)O)C(=O)N[C@@H](CC(C)C)C(=O)N[C@H](C(N)=O)C(C)C)NC(=O)[C@H](Cc2c[nH]cn2)NC1=O` [Compound 33] was 0.68; that for `COc1cc2c(OC)cc1NC(=O)CSC[C@@H](C(=O)N[C@@H](CCC(=O)O)C(=O)N[C@@H](CC(C)C)C(=O)N[C@H](C(N)=O)C(C)C)NC(=O)[C@H](Cc1c[nH]cn1)NC(=O)[C@H](CC(C)C)NC(=O)[C@H](C)NC(=O)[C@H](C)NC(=O)[C@H](Cc1c[nH]c3ccccc13)NC(=O)[C@H](CCC(=O)O)NC(=O)[C@@H](NC(=O)[C@H](CCCNC(=N)N)NC(=O)[C@H](Cc1c[nH]cn1)NC(=O)[C@@H](NC(=O)[C@H](C)NC(=O)[C@@H]1CCCN1C(=O)[C@H](CC(=O)O)NC(=O)[C@H](C)N)[C@@H](C)O)CSCC(=O)N2` [Compound 34] was 0.63; that for `CC[C@H](C)[C@@H]1NC(=O)[C@H](CC(C)C)NC(=O)[C@H](C)NC(=O)[C@H](C)NC(=O)[C@H](Cc2c[nH]cn2)NC(=O)[C@H](CCC(=O)O)NC(=O)[C@@H](NC(=O)[C@H](C)NC(=O)[C@H](Cc2c[nH]c3ccccc23)NC(=O)[C@H](CC(C)C)NC(=O)[C@H](C)NC(=O)[C@@H]2CCCN2C(=O)[C@H](CC(=O)O)NC(=O)[C@H](C)N)CSCC(=O)N(C)c2ccc(cc2)N(C)C(=O)CSC[C@@H](C(=O)N[C@@H](CCC(=O)O)C(=O)N[C@H](C(=O)N[C@@H](CCC(N)=O)C(N)=O)[C@@H](C)O)NC1=O` [Compound 40] (H-ADPALWACEHAALICETQ-NH2; linker 8-15 via X5; N-terminus and C-terminus assumed) was 0.73.

In the case of `CC[C@H](C)[C@@H]1NC(=O)[C@H](CC(C)C)NC(=O)[C@H](C)NC(=O)[C@H](C)NC(=O)[C@H](Cc2c[nH]cn2)NC(=O)[C@H](CCC(=O)O)NC(=O)[C@@H](NC(=O)[C@H](C)NC(=O)[C@H](Cc2c[nH]c3ccccc23)NC(=O)[C@H](CC(C)C)NC(=O)[C@H](C)NC(=O)[C@@H]2CCCN2C(=O)[C@H](CC(=O)O)NC(=O)[C@H](C)N)CSCC(=O)Nc2cc(F)c(cc2F)NC(=O)CSC[C@@H](C(=O)N[C@@H](CCC(=O)O)C(=O)N[C@H](C(=O)N[C@@H](CCC(N)=O)C(N)=O)[C@@H](C)O)NC1=O` [Compound 41] (H-ADPALWACEHAALICETQ-NH2; linker 8-15 via X7; N-terminus and C-terminus assumed), the chromatographic logD was 0.73.
